What was measured:
[1] = target: T1, Human CD73 (amino acid residues 27-549) (Homo sapiens, UniProt P21589); assay: CD73 enzymatic assay (luciferase-based indirect assay, CellTiter-Glo); format: biochemical; details: 0.4 nM CD73, 150 μM AMP, 1 hour at room temperature
T1 construct: Human CD73 (amino acid residues 27-549); His tag (N); made in house; host or cells: E. coli
T1 sequence (P21589 27-549): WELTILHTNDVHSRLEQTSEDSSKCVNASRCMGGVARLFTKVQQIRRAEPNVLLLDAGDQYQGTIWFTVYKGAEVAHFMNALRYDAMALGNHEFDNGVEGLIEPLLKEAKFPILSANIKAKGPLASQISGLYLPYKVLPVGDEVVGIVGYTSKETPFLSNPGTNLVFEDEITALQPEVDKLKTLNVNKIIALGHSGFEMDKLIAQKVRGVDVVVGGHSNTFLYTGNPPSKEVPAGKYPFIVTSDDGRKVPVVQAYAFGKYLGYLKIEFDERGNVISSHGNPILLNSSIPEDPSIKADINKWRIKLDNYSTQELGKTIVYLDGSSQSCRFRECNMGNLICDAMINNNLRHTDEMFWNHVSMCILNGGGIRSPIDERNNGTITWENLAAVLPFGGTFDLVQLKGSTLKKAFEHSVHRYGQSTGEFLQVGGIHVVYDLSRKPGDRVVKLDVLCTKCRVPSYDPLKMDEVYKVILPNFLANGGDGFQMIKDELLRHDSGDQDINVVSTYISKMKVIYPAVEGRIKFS
Outline: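 N-His human CD73 (27-549) expressed in E. coli, 0.4 nM, incubated with 150 μM AMP and compound in 50 mM HEPES pH 7.4, 0.01% Tween-20, 1 h at RT. Remaining AMP read via CellTiter-Glo luminescence with 1 μM ATP after 30 min; IC50 from nonlinear regression of % inhibition.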

human CD73 = target: T2, human CD73 (Homo sapiens, UniProt P21589); assay: Inhibitor activity against CD73 in cell based assay (CD73 expressing CHO-K1 cells); details: CHO-K1 cells expressing human CD73, 150 μM AMP, 4 hours of incubation; read-out: CHO-K1 CELL_VARIANT: CD73 IC50
T2 construct: expressed in transfected cells
T2 sequence (P21589 27-549): T1 sequence (P21589 27-549)
Outline: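 Stable human CD73 CHO-K1 cells, 1×10^4/well, exposed to an 8-point 1:3 compound series (top 10 μM, 0.2% DMSO) plus 150 μM AMP for 4 h. Remaining AMP in the supernatant was read by CellTiter-Glo 2.0 luminescence with 1 μM ATP after 30 min at room temperature. IC50 came from nonlinear regression of % inhibition against cell and media-only controls.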

SMILES | IC50 [1] [µM] | IC50 (human CD73) [µM]
Cc1noc(C)c1-c1cc(O[C@@H]2CCN(c3cnn(CCO)c(=O)c3Cl)C2)ncn1 [P-0178, (R)-4-chloro-5-(3-((6-(3,5-dimethylisoxazol-4-yl)pyrimidin-4-yl)oxy)pyrrolidin-1-yl)-2-(2-hydroxyethyl)pyridazin-3(2H)-one] | 0.001 to 10 | 0.001 to 10
Cc1noc(C)c1-c1ccnc(O[C@H]2CN(c3cn[nH]c(=O)c3Cl)C[C@@H]2F)c1 [P-0180, 4-chloro-5-((3S,4S)-3-((4-(3,5-dimethylisoxazol-4-yl)pyridin-2-yl)oxy)-4-fluoropyrrolidin-1-yl)pyridazin-3(2H)-one] | 0.001 to 10 | 0.001 to 10
Cc1nn(C)c(C)c1-c1cc(O[C@@H]2CCN(c3cn[nH]c(=O)c3Cl)C2)ncn1 [P-0181, (R)-4-chloro-5-(3-((6-(1,3,5-trimethyl-1H-pyrazol-4-yl)pyrimidin-4-yl)oxy)pyrrolidm-1-yl)pyridazin-3(2H)-one] | 0.001 to 10 | 0.001 to 10
Cc1noc(C)c1-c1cc(O[C@@H]2CCN(c3cn[nH]c(=O)c3Cl)C2)ncn1 [P-0182, (R)-4-chloro-5-(3-((6-(3,5-dimethylisoxazol-4-yl)pyrimidin-4-yl)oxy)pyrrolidin-1-yl)pyridazin-3(2H)-one] | 0.001 to 10 | 0.001 to 10
Cc1nn(CC2CCC2)c(C)c1-c1cc(F)nc(O[C@@H]2CCN(c3cn[nH]c(=O)c3Cl)C2)c1 [P-0183, (R)-4-chloro-5-(3-((4-(1-(cyclobutylmethyl)-3,5-dimethyl-1H-pyrazol-4-yl)-6-fluoropyridin-2-yl)oxy)pyrrolidin-1-yl)pyridazin-3(2H)-one] | 0.001 to 10 | 0.001 to 10
Cc1nn(CC2(C)COC2)c(C)c1-c1cc(F)nc(O[C@@H]2CCN(c3cn[nH]c(=O)c3Cl)C2)c1 [P-0184, (R)-4-chloro-5-(3-((4-(3,5-dimethyl-1-((3-methyloxetan-3-yl)methyl)-1H-pyrazol-4-yl)-6-fluoropyridin-2-yl)oxy)pyrrolidin-1-yl)pyridazin-3(2H)-one] | 0.001 to 10 | 0.001 to 10
Cc1nn(CC(C)(CO)CCl)c(C)c1-c1cc(F)nc(O[C@@H]2CCN(c3cn[nH]c(=O)c3Cl)C2)c1 (stereo partly drawn) [P-0185, 4-chloro-5-((3R)-3-((4-(1-(3-chloro-2-(hydroxymethyl)-2-methylpropyl)-3,5-dimethyl-1H-pyrazol-4-yl)-6-fluoropyridin-2-yl)oxy)pyrrolidin-1-yl)pyridazin-3(2H)-one] | 0.001 to 10 | 0.001 to 10
Cc1nn(CC(C)(C)O)c(C)c1-c1cc(F)nc(O[C@@H]2CCN(c3cn[nH]c(=O)c3Cl)C2)c1 [P-0186, (R)-4-chloro-5-(3-((6-fluoro-4-(1-(2-hydroxy-2-methylpropyl)-3,5-dimethyl-1H-pyrazol-4-yl)pyridin-2-yl)oxy)pyrrolidin-1-yl)pyridazin-3(2H)-one] | 0.001 to 10 | 0.001 to 10
Cc1nn(CC2CC(F)(F)C2)c(C)c1-c1cc(F)nc(O[C@@H]2CCN(c3cn[nH]c(=O)c3Cl)C2)c1 [P-0187, (R)-4-chloro-5-(3-((4-(1-((3,3-difluorocyclobutyl)methyl)-3,5-dimethyl-1H-pyrazol-4-yl)-6-fluoropyridin-2-yl)oxy)pyrrolidin-1-yl)pyridazin-3(2H)-one] | 0.001 to 10 | 0.001 to 10
Cc1noc(C)c1-c1cc(F)nc(O[C@H]2CN(c3cnn(CCO)c(=O)c3Cl)C[C@@H]2F)c1 [P-0188, 4-chloro-5-((3S,4S)-3-((4-(3,5-dimethylisoxazol-4-yl)-6-fluoropyridin-2-yl)oxy)-4-fluoropyrrolidin-1-yl)-2-(2-hydroxyethyl)pyridazin-3(2H)-one] | 0.001 to 10 | 0.001 to 10
Cc1noc(C)c1-c1cc(F)nc(O[C@H]2CN(c3cn[nH]c(=O)c3Cl)C[C@@H]2F)c1 [P-0189, 4-chloro-5-((3S,4S)-3-((4-(3,5-dimethylisoxazol-4-yl)-6-fluoropyridin-2-yl)oxy)-4-fluoropyrrolidin-1-yl)pyridazin-3(2H)-one] | 0.001 to 10 | 0.001 to 10
Cc1nn(C)c(C)c1-c1cc(F)nc(O[C@H]2CN(c3cnn(CCO)c(=O)c3Cl)C[C@@H]2F)c1 [P-0190, 4-chloro-5-((3S,4S)-3-fluoro-4-((6-fluoro-4-(1,3,5-trimethyl-1H-pyrazol-4-yl)pyridin-2-yl)oxy)pyrrolidin-1-yl)-2-(2-hydroxyethyl)pyridazin-3(2H)-one] | 0.001 to 10 | 0.001 to 10
Cc1nn(C)c(C)c1-c1cc(F)nc(O[C@H]2CN(c3cn[nH]c(=O)c3Cl)C[C@@H]2F)c1 [P-0191, 4-chloro-5-((3S,4S)-3-fluoro-4-((6-fluoro-4-(1,3,5-trimethyl-1H-pyrazol-4-yl)pyridin-2-yl)oxy)pyrrolidin-1-yl)pyridazin-3(2H)-one] | 0.001 to 10 | 0.001 to 10
Cc1nn(CCO)c(C)c1-c1cc(F)nc(O[C@@H]2CCN(c3cn[nH]c(=O)c3Cl)C2)c1 [P-0192, (R)-4-chloro-5-(3-((6-fluoro-4-(1-(2-hydroxyethyl)-3,5-dimethyl-1H-pyrazol-4-yl)pyridin-2-yl)oxy)pyrrolidin-1-yl)pyridazin-3(2H)-one] | 0.001 to 10 | 0.001 to 10
Cc1n[nH]c(C)c1-c1cc(F)nc(O[C@@H]2CCN(c3cn[nH]c(=O)c3Cl)C2)c1 [P-0193, (R)-4-chloro-5-(3-((4-(3,5-dimethyl-1H-pyrazol-4-yl)-6-fluoropyridin-2-yl)oxy)pyrrolidin-1-yl)pyridazin-3(2H)-one] | 0.001 to 10 | 0.001 to 10
Cc1c(-c2cc(F)nc(O[C@@H]3CCN(c4cn[nH]c(=O)c4Cl)C3)c2)cnn1C [P-0194, (R)-4-chloro-5-(3-((4-(1,5-dimethyl-1H-pyrazol-4-yl)-6-fluoropyridin-2-yl)oxy)pyrrolidin-1-yl)pyridazin-3(2H)-one] | 0.001 to 10 | 0.001 to 10
Cc1noc(C)c1-c1cc(F)nc(O[C@@H]2CCN(c3cn[nH]c(=O)c3Cl)C2)c1 [P-0195, (R)-4-chloro-5-(3-((4-(3,5-dimethylisoxazol-4-yl)-6-fluoropyridin-2-yl)oxy)pyrrolidin-1-yl)pyridazin-3(2H)-one] | 0.001 to 10 | 0.001 to 10
Cc1c(-c2cccc(O[C@@H]3CCN(c4cn[nH]c(=O)c4Cl)C3)c2)cnn1C [P-0196, (R)-4-chloro-5-(3-(3-(1,5-dimethyl-1H-pyrazol-4-yl)phenoxy)pyrrolidin-1-yl)pyridazin-3(2H)-one] | 0.001 to 10 | 0.001 to 10
Cc1nn(C)cc1-c1cccc(O[C@@H]2CCN(c3cn[nH]c(=O)c3Cl)C2)c1 [P-0197, (R)-4-chloro-5-(3-(3-(1,3-dimethyl-1H-pyrazol-4-yl)phenoxy)pyrrolidin-1-yl)pyridazin-3(2H)-one] | 0.001 to 10 | 0.001 to 10
Cc1nn(C)c(C)c1-c1cccc(O[C@@H]2CCN(c3cn[nH]c(=O)c3Cl)C2)c1 [P-0198, (R)-4-chloro-5-(3-(3-(1,3,5-trimethyl-1H-pyrazol-4-yl)phenoxy)pyrrolidin-1-yl)pyridazin-3(2H)-one] | 0.001 to 10 | 0.001 to 10
Cc1nn(C)c(C)c1-c1cc(F)nc(O[C@@H]2CCN(c3cnn(CCO)c(=O)c3Cl)C2)c1 [P-0199, (R)-4-chloro-5 (3-((6-fluoro-4-(1,3,5-trimethyl-1H-pyrazol-4-yl)pyridin-2-yl)oxy)pyrrolidin-1-yl)-2-(2-hydroxyethyl)pyridazin-3(2H)-one] | 0.001 to 10 | 0.001 to 10
Cc1nn(C)c(C)c1-c1cc(F)nc(O[C@@H]2CCN(c3cn[nH]c(=O)c3Cl)C2)c1 [P-0200, (R)-4-chloro-5-(3-((6-fluoro-4-(1,3,5-trimethyl-1H-pyrazol-4-yl)pyridin-2-yl)oxy)pyrrolidin-1-yl)pyridazin-3(2H)-one] | 0.001 to 10 | 0.001 to 10
Cc1noc(C)c1-c1ccnc(O[C@@H]2CCN(c3cn[nH]c(=O)c3Cl)C2)c1 [P-0201, (R)-4-chloro-5-(3-((4-(3,5-dimethylisoxazol-4-yl)pyridin-2-yl)oxy)pyrrolidin-1-yl)pyridazin-3(2H)-one] | 0.001 to 10 | 0.001 to 10
CCNS(=O)(=O)c1ccc(-c2ccnc(O[C@@H]3CCN(c4cn[nH]c(=O)c4Cl)C3)c2)c(Cl)c1 [P-0202, (R)-3-chloro-4-(2-((1-(5-chloro-6-oxo-1,6-dihydropyridazin-4-yl)pyrrolidin-3-yl)oxy)pyridin-4-yl)-N-ethylbenzenesulfonamide] | 0.001 to 10 | 0.001 to 10
Cc1nn(C)c(C)c1-c1ccnc(O[C@@H]2CCN(c3cn[nH]c(=O)c3Cl)C2)c1 [P-0203, (R)-4-chloro-5-(3-((4-(1,3,5-trimethyl-1H-pyrazol-4-yl)pyridin-2-yl)oxy)pyrrolidin-1-yl)pyridazin-3(2H)-one] | 0.001 to 10 | 0.001 to 10

— patent US12202818B2, “Compounds and methods for CD73 modulation and indications therefor” (Opna Bio SA, priority 2020, dated 2025)
